Results: patent US8097241B2, “Formulation and method for treating animal waste” (priority 2007, dated 2012)

Experiments:
[1] = Rate of malodor disappearance from dog waste stirred at 40° C.; details: oxidizing agent added to the formulation or as aqueous solution
Experimental: 1. The specific amount of feces was weighed (about 4.0 g; accuracy of 1 mg) out and transferred to the 200 mL beaker.
2. 100.0 g of aqueous solution containing either no additives or the selected ones weighed at the same balance (accuracy of 1 mg) was added to the beaker.
3. The sample was located on a hot plate and stirred magnetically at 40° C. in the fume hood.
4. The samples were checked for the released smell every few minutes.
50.0 mL of deionized water containing selected quantities of detergent, pH affecting agent and protease (same concentration as in the formulation divided by 50 since this is the planned dilution with water), pH affecting agent and protease • a. no additives • b. Cola Lipid (0.20 g); protease (Alcalase 3.0T, 0.008 g), sodium perborate tetrahydrate (0.012 g), citric acid (to adjust pH to about 3.0), • c. Cola Lipid (0.20 g); protease (Alcalase 3.0T, 0.008 g), sodium perborate tetrahydrate (0.012 g), sodium hydrogen carbonate (to adjust pH to about 10.0), • d. Cola Lipid (0.20 g); protease (Alcalase 3.0T, 0.008 g), 5% hydrogen peroxide (0.100 g), citric acid (to adjust pH to about 3.0) was added to 3.00 g of the dog waste. The mixtures were located in the fume hood, heated on the hot plate to 40° C. and stirred magnetically. […] The malodor of the sample “a” disappeared after about 30 minutes.

[2] = Rate of disintegration of animal waste: time to a uniformly distributed suspension under magnetic stirring; design: species or system dog; details: about 5 g waste, 90.0 g water, stirring about 90 rpm; water alone 16 minutes
Experimental: 1. The selected amount of feces was weighed out with the accuracy of 10 mg. All the samples had the same mass within 200 milligrams.
2. […]
3. The mixture was mixed at specific rate (about 90 rpm) using a magnetic bar inside the solution and a magnetic stirrer. The amount of time necessary to produce a uniformly distributed suspension was measured.

animal waste bio-burden = experiment: Lowering of animal waste bio-burden: dog waste homogenised with additives, serially diluted, plated on agar, CFUs counted; type: cell-based
Experimental: 1. A specific amount of a dog waste weighed with the accuracy of 1 mg (usually between 3 and 7 g) was transferred into the sterilized homogenizer. In a set of experiments performed on a given day the mass of all the samples were the same within 20.0 mg.
2. All the required additives were weighed out using the same balance and introduced into a specific amount of deionized, freshly boiled (but cooled to room temperature) water (usually between 50.0 g and 100.0 g) in the sterilized Erlenmeyer flask.
3. Next, the aqueous solution of additives was transformed into the homogenizer.
4. The mixture was mixed at low (18,000 RPM) for a specific amount of time (usually 30 seconds).
5. The resulting suspension was transferred to the sterilized Erlenmeyer flask and gradually diluted 10 times in several subsequent dilution steps. Initially, 5.0 mL of the non-diluted solution was added to 45.0 mL of deionized, freshly boiled water. The Eppendorf pipettes were used for further dilutions and in each case […] of the previous sample after vortex was added to 0.900 mL of deionized, freshly boiled water in a sterile vial. Usually, 6 or 7 dilutions were performed. In every set of experiments one sample consisted of the feces and water only. All the results were measured against this sample.
6. […]
8. Next, each sample was counted to determine the number of CFUs (colony forming units).

Molecule | reduction of malodor of feces, in words [1] | Time until feces disintegration [2] [min] | also measured
sodium perborate | destroy the malodor very effectively | – | reduction of malodor of feces, in words ([1]; listed as Sodium perborate): effectively minimizes the malodor of feces
CCCCCCCCCCCCOS(=O)(=O)[O-].[Na+] [Sodium dodecyl sulfate, sodium dodecyl sulfate] | – | 1 | –
O.O.O.O=BO[O-].[Na+] [sodium perborate trihydrate] | significantly reduced malodours | – | –
octoxynol [Triton X100] | – | 4 | –
CCCCCCCC/C=C\CCCCCCCC(=O)OCCOCC(OCCO)C1OCC(OCCO)C1OCCO (stereo not shown) [Tween 80, polysorbate 80] | – | 2 | –
O=C(OO)c1cccc(Cl)c1 [metachloroperbenzoic acid (MCPBA), metachloroperbenzoic acid] | destroy the malodor very effectively | – | –
cocamidopropyl PG-dimonium chloride phosphate [Cola lipid] | – | 1 | effect of added citric acid on antimicrobial activity (animal waste bio-burden; formulation of Table 3 against the same formulation without citric acid): significantly enhanced the antimicrobial activity; antimicrobial activity, comparison in words (animal waste bio-burden; treating animal waste): significantly better antimicrobial activity
